How the values were obtained:
[1] = test system: xenograft and spontaneous tumor models; settings: over 55 xenograft and spontaneous tumor models; cited from earlier work
circulating tumor cells = test: Flow cytometry identification and enumeration of circulating tumor cells in mononuclear cells from cancer patients' whole blood stained with CLR1501; format: cell-based, human; settings: for CK−/EpCAM−/CLR1501+ cells (number): CD45−, CD14−, CD34−, nucleated
Source text: (§1) Whole blood was collected in either Cell Save® collection tubes or ethylenediaminetetraacetic acid (“EDTA”) collection tubes from seven cancer patients with lung (patients 101 and 103), thyroid (patient 102), breast (patient 106), cervical (patient 104), squamous cell carcinoma (107), and colorectal (patient 108) cancer prior to (draw 1) and after (draw 2) therapy, when available. Mononuclear cells were isolated from the whole blood using a Ficoll-Paque density gradient. Cells from each patient were then incubated with an Fc blocker. The cells were then stained with fluorescently-tagged antibodies to CD45, CD14, CD34, EpCAM, and pan-Cytokeratin (CK), and a fluorescent PLE analog (“CLR1501”) for 30 minutes. Cells were then analyzed by flow cytometry to indicate the number of cells from each whole blood sample that were positive and/or negative for a particular marker. According to the current definition, CTCs were identified as live cells that were CD45−, CD14−, CD34−, CK+, and EpCAM+ (“by definition”). Due to prior experience with CD14+ monocytes/macrophages (FIG. 1), CD14+ cells were removed from the analyses due to high uptake of CLR1501. CD34+ normal […] cells were also removed from the analyses.
The first row of Tables 1 and 2 depicts the number of cells from each patient's blood draw that fulfilled the definition of a CTC: CD45−, CD14−, CD34−, CK+, and EpCAM+, and contained a nucleus. The second row depicts the number of cells from each patient's blood draw that were CD45−, CD14−, CD34−, CK+, and contained a nucleus. The third row depicts the number of cells from each patient's blood draw that were CLR 1501+, CD45−, CD14−, CD34−, CK+, and contained a nucleus. The fourth row depicts the number of cells from each patient's blood draw that were CD45−, CD14−, CD34−, and EpCAM+ and contained a nucleus. The fifth row depicts the number of cells from each patient's blood draw that were CLR 1501+, CD45−, CD14−, CD34−, and EpCAM+ and contained a nucleus. The sixth row depicts the number of cells from each patient's blood draw that were CLR 1501+, CD45−, CD14−, CD34−, CK−, and EpCAM−, and contained a nucleus.

[2] = test system: CD14+ monocytes/macrophages; test: Flow cytometry uptake of CLR1501 in CD14+ cells of patient blood (FIG. 1); format: cell-based, human
Source text: FIG. 1. […] Upper left quadrant indicates CD14−/CLR1501+ cells, upper right indicates CD14+/CLR1501+, bottom right indicates CD14+/CLR1501−, and bottom left indicates CD14−/CLR1501.
Whole blood was collected in either Cell Save® collection tubes or ethylenediaminetetraacetic acid (“EDTA”) collection tubes from seven cancer patients with lung (patients 101 and 103), thyroid (patient 102), breast (patient 106), cervical (patient 104), squamous cell carcinoma (107), and colorectal (patient 108) cancer prior to (draw 1) and after (draw 2) therapy, when available. Mononuclear cells were isolated from the whole blood using a Ficoll-Paque density gradient. Cells from each patient were then incubated with an Fc blocker. The cells were then stained with fluorescently-tagged antibodies to CD45, CD14, CD34, EpCAM, and pan-Cytokeratin (CK), and a fluorescent PLE analog (“CLR1501”) for 30 minutes. Cells were then analyzed by flow cytometry to indicate the number of cells from each whole blood sample that were positive and/or negative for a particular marker. According to the current definition, CTCs were identified as live cells that were CD45−, CD14−, CD34−, CK+, and EpCAM+ (“by definition”). Due to prior experience with CD14+ monocytes/macrophages (FIG. 1), CD14+ cells were removed from the analyses due to high uptake of CLR1501. CD34+ normal […] cells were also removed from the analyses. […]

CD45+ and CD34+ cells = test: Flow cytometry uptake of CLR1501 in remaining CD45+ and CD34+ cells of patient blood; format: cell-based, human; settings: same patient, in comparison with CD14+ cells
Source text: as §1

C[N+](C)(C)CCOP(=O)([O-])OCCCCCCCCCCCCCCCCCCc1ccc(I)cc1 [CLR1404]
uptake and retention in tumors [1]: selective uptake and prolonged retention in tumors

C[N+](C)(C)CCOP(=O)([O-])OCCCCCCCCCCCCCCCCCCc1ccc(C2=C3C=CC=[N+]3[B-](F)(F)n3cccc32)cc1 [CLR1501]
CK−/EpCAM−/CLR1501+ cells (number) (circulating tumor cells; Cell Save tube, patient 101 draw 1, lung cancer): 1.4 M
CK−/EpCAM−/CLR1501+ cells (number) (circulating tumor cells; Cell Save tube, patient 101 draw 2, lung cancer): 121,696 cells
CK−/EpCAM−/CLR1501+ cells (number) (circulating tumor cells; Cell Save tube, patient 102 draw 1, thyroid cancer): 6.7 M
CK−/EpCAM−/CLR1501+ cells (number) (circulating tumor cells; Cell Save tube, patient 102 draw 2, thyroid cancer): 7.9 M
CK−/EpCAM−/CLR1501+ cells (number) (circulating tumor cells; Cell Save tube, patient 103, lung cancer): 5.3 M
CK−/EpCAM−/CLR1501+ cells (number) (circulating tumor cells; Cell Save tube, patient 104 draw 1, cervical cancer): 1.3 M
CK−/EpCAM−/CLR1501+ cells (number) (circulating tumor cells; Cell Save tube, patient 106, breast cancer): 278 cells
CK−/EpCAM−/CLR1501+ cells (number) (circulating tumor cells; Cell Save tube, patient 107, carcinoma): 611,622 cells
CK−/EpCAM−/CLR1501+ cells (number) (circulating tumor cells; Cell Save tube, patient 108 draw 1, colorectal cancer): 1,062 cells
CK−/EpCAM−/CLR1501+ cells (number) (circulating tumor cells; Cell Save tube, patient 108 draw 2, colorectal cancer): 1.1 M
CK−/EpCAM−/CLR1501+ cells (number) (circulating tumor cells; EDTA tube, patient 101 draw 1, lung cancer): 1.8 M
CK−/EpCAM−/CLR1501+ cells (number) (circulating tumor cells; EDTA tube, patient 101 draw 2, lung cancer): 30,222 cells
CK−/EpCAM−/CLR1501+ cells (number) (circulating tumor cells; EDTA tube, patient 102 draw 1, thyroid cancer): 1.5 M
CK−/EpCAM−/CLR1501+ cells (number) (circulating tumor cells; EDTA tube, patient 102 draw 2, thyroid cancer): 10.9 M
CK−/EpCAM−/CLR1501+ cells (number) (circulating tumor cells; EDTA tube, patient 103, lung cancer): 2.5 M
CK−/EpCAM−/CLR1501+ cells (number) (circulating tumor cells; EDTA tube, patient 104, cervical cancer): 4.0 M
CK−/EpCAM−/CLR1501+ cells (number) (circulating tumor cells; EDTA tube, patient 106, breast cancer): 19,585 cells
CK−/EpCAM−/CLR1501+ cells (number) (circulating tumor cells; EDTA tube, patient 107, carcinoma): 147,641 cells
CK−/EpCAM−/CLR1501+ cells (number) (circulating tumor cells; EDTA tube, patient 108 draw 1, colorectal cancer): 29,584 cells
CK−/EpCAM−/CLR1501+ cells (number) (circulating tumor cells; EDTA tube, patient 108 draw 2, colorectal cancer): 753,387 cells
CK+ cells identified by CLR 1501 (circulating tumor cells; all cancer types, either blood collection tube, listed as 2 vs row 3 of Table 1 or 2): 99-100%
EpCAM+ cells identified by CLR 1501 (circulating tumor cells; all cancer types, either blood collection tube, listed as 4 vs row 5 of Table 1 or 2): 35-100%
uptake of CLR1501 by CTCs (by definition) (circulating tumor cells; all seven patient samples): positive uptake
uptake of CLR1501 in CD14+ cells ([2]; CD14+ monocytes/macrophages, FIG. 1): high uptake
cells positive for CD14+ that are also positive for CLR1501 ([2]; CD45−, CD34− cells from patient 108 (colorectal cancer), FIG. 1 panel B): 99.7%
uptake of CLR1501 by remaining CD45+ and CD34+ cells (CD45+ and CD34+ cells): not take up CLR1501 to a large extent
